# Laboratory results taken from ChEMBL document CHEMBL4837230, “Thiophene-2-carboxamide derivatives of anthraquinone: A new potent antitumor chemotype” (Eur J Med Chem, 2021).
# Calls of active or inactive are those of the source. The rule behind the calls is not given here.
# Columns and labels:
# [1] = Drug localization in nuclei of mouse NIH3T3 cells at 1 uM incubated for 5 to 60 mins by Hoechst 33258 staining based laser confocal microscopy; assay type: ADME, cell-based; details: nih3t3, 1 µM, time 5-60 min
# U-937 = test: Cytotoxicity in human U-937 cells assessed as reduction in cell viability incubated for 72 hrs by MTT assay; assay type: functional, cell-based; details: U-937, 72 h
# K562 [2] = test: Induction of apoptosis in human K562 cells assessed as early apoptotic cells after 3 hrs by Annexin V-APC/PI double staining based flow cytometric analysis (reference value: 0.1%); assay type: functional
# K562 [3] = test: Induction of cell cycle arrest in human K562 cells assessed as increase in accumulation at G0/G1 phase at 2.5 uM after 2 hrs by flow cytometric analysis (reference value: 46.5%); assay type: functional
# K562 [4] = test: Cytotoxicity in human K562 cells assessed as reduction in cell viability at 0.5 uM incubated with compound for 120 mins followed by cell washing and measured after 72 hrs by propidium iodide staining based flow cytometric analysis; assay type: functional; details: 2 h
# K562 [5] = test: Induction of cell cycle arrest in human K562 cells assessed as increase in accumulation at G2/M phase at 2.5 uM after 2 hrs by flow cytometric analysis (reference value: 15.2%); assay type: functional
# K562 [6] = test: Induction of cell cycle arrest in human K562 cells assessed as increase in accumulation at sub-G1 phase at 0.5 uM after 48 hrs by propidium iodide staining based flow cytometric analysis (reference value: 8.4%); assay type: functional
# K562 [7] = test: Induction of cell cycle arrest in human K562 cells assessed as increase in accumulation at sub-G1 phase at 2.5 uM after 4 hrs by flow cytometric analysis (reference value: 14%); assay type: functional
# K562 [8] = test: Induction of cell cycle arrest in human K562 cells assessed as increase in accumulation at G0/G1 phase at 2.5 uM after 4 hrs by flow cytometric analysis (reference value: 19.2%); assay type: functional
# K562 [9] = test: Cytotoxicity in human K562 cells assessed as reduction in cell viability at 1 uM incubated with compound for 60 mins followed by cell washing and measured after 72 hrs by propidium iodide staining based flow cytometric analysis; assay type: functional
# [10] = Drug localization in mitochondria of mouse NIH3T3 cells at 1 uM measured after 60 mins by MitoTracker red based confocal microscopic method; assay type: ADME; details: nih3t3, 1 h
# K562 [11] = test: Induction of apoptosis in human K562 cells assessed as viable cells after 24 hrs by Annexin V-APC/PI double staining based flow cytometric analysis (reference value: 91%); assay type: functional
# DNA = test: Binding affinity to pBR322 DNA (unknown origin) at 20 uM after 30 mins by electrophoretic mobility shift assay; assay type: nucleic-acid assay
# [12] = Cytotoxicity in human DND41 cells assessed as reduction in cell viability incubated for 72 hrs by MTT assay; assay type: functional, cell-based; details: DND41, 72 h
# K562 [13] = test: Induction of cell cycle arrest in human K562 cells assessed as increase in accumulation at sub-G1 phase at 2.5 uM after 2 hrs by flow cytometric analysis (reference value: 15.2%); assay type: functional
# K562 [14] = test: Induction of apoptosis in human K562 cells assessed as necrotic cells after 3 hrs by Annexin V-APC/PI double staining based flow cytometric analysis (reference value: 6.3%); assay type: functional
# K562 [15] = test: Induction of cell cycle arrest in human K562 cells assessed as increase in accumulation at G0/G1 phase at 2.5 uM by flow cytometric analysis (reference value: 60.9%); assay type: functional
# [16] = Drug localization in mitochondria of mouse NIH3T3 cells at 1 uM measured after 5 mins by MitoTracker red based confocal microscopic method; assay type: ADME; details: nih3t3, 5 min
# [17] = Drug localization in lysosome of mouse NIH3T3 cells at 1 uM incubated for 60 mins by lyso-tracker red based confocal microscopic method; assay type: ADME, cell-based; details: nih3t3, 1 h
# K562 [18] = test: Induction of cell cycle arrest in human K562 cells assessed as increase in accumulation at G2/M phase at 2.5 uM by flow cytometric analysis (reference value: 11.8%); assay type: functional
# K562 [19] = test: Induction of cell cycle arrest in human K562 cells assessed as increase in accumulation at sub-G1 phase at 2.5 uM after 24 hrs by propidium iodide staining based flow cytometric analysis (reference value: 8.4%); assay type: functional
# K562 [20] = test: Induction of cell cycle arrest in human K562 cells assessed as increase in accumulation at sub-G1 phase at 2.5 uM by flow cytometric analysis (reference value: 16.1%); assay type: functional
# K562 [21] = test: Induction of apoptosis in human K562 cells assessed as necrotic cells after 24 hrs by Annexin V-APC/PI double staining based flow cytometric analysis (reference value: 6.3%); assay type: functional
# K562 [22] = test: Cytotoxicity in human K562 cells assessed as reduction in cell viability at 2.5 uM incubated with compound for 60 mins followed by cell washing and measured after72 hrs by propidium iodide staining based flow cytometric analysis; assay type: functional; details: 1 h
# K562 [23] = test: Induction of cell cycle arrest in human K562 cells assessed as increase in accumulation at sub-G1 phase at 2.5 uM after 48 hrs by propidium iodide staining based flow cytometric analysis (reference value: 8.4%); assay type: functional
# [24] = biological target: T1, DNA topoisomerase 1 (Homo sapiens) (UniProt P11387); test: Inhibition of topoisomerase 1 (unknown origin) assessed as relaxation of supercoiled plasmid pBR322 DNA at 1 to 5 uM incubated for 30 mins by electrophoresis; details: dose 1-5 µM
# T1 sequence (whole entry): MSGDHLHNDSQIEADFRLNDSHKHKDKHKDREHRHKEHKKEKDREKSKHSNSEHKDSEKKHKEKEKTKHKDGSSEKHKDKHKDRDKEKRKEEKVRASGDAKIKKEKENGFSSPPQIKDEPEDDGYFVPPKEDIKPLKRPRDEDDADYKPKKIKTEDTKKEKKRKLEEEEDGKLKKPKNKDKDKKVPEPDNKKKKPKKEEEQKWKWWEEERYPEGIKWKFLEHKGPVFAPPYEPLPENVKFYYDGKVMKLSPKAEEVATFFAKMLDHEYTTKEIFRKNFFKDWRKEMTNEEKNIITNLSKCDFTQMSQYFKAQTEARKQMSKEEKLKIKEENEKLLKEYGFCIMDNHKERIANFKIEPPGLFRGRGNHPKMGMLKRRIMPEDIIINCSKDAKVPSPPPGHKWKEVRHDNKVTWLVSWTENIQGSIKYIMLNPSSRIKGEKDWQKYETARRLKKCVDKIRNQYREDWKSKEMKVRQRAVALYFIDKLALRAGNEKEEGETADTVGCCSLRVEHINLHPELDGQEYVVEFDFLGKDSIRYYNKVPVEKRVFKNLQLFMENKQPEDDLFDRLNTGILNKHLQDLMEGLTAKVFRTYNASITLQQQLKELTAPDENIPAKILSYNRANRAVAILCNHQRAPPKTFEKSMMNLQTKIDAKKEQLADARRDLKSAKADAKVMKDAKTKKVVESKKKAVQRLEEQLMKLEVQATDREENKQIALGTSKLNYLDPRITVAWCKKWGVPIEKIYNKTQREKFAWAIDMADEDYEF
# Calf thymus DNA = test: Binding affinity to calf thymus double strand DNA incubated for 5 mins by spectrophotometry; assay type: nucleic-acid assay; details: Bos taurus
# NCI-H460 = test: Cytotoxicity in human NCI-H460 cells assessed as reduction in cell viability incubated for 72 hrs by MTT assay; assay type: functional, cell-based; details: NCI-H460, 72 h
smiles,measurement,setting,value
N[C@H]1CCN(C(=O)c2cc3c(O)c4c(c(O)c3s2)C(=O)c2ccccc2C4=O)C1,Drug uptake,[1],Not Active
same,IC50,U-937,200 nM
same,Activity,K562 [2],0.6%
same,Activity,K562 [3],40.4%
same,Activity,K562 [4],8.7%
same,Activity,K562 [5],15.9%
same,Activity,K562 [6],33.2%
same,Activity,K562 [7],14.5%
same,Activity,K562 [8],28.1%
same,Activity,K562 [9],6.3%
same,Drug uptake,[10],Active
same,Activity,K562 [11],1.8%
same,Activity,DNA,inactive
same,IC50,[12],400 nM
same,Activity,K562 [13],15.9%
same,Activity,K562 [14],38.2%
same,Activity,K562 [15],59.1%
same,Drug uptake,[16],Not Active
same,Drug uptake,[17],Active
same,Activity,K562 [18],14%
same,Activity,K562 [19],76.7%
same,Activity,K562 [20],14.9%
same,Activity,K562 [21],48.8%
same,Activity,K562 [22],63.4%
same,Activity,K562 [23],84.5%
same,inhibition,[24],inactive
same,Activity,Calf thymus DNA,inactive
same,IC50,NCI-H460,400 nM
